Measured values: patent US12497365B2, “4-pyridinyl formamide compound or derivative thereof, preparation method therefor, herbicidal composition and use thereof” (Qingdao Kingagroot Chemical Compound Co., Ltd., priority 2019, dated 2025)

Key:
Test in all cases: Weeding effect in post-emergence stage
Type in all cases: in vivo
Settings in all cases: active ingredient 2000 g/ha, 3 weeks after application, fresh weight control rate
[1] = test system: Abutilon theophrasti
How it was run: (§1)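 Read-out is growth control rate based on fresh weight, assessed 3 weeks after treatment in the greenhouse. Plants were sprayed at the 2-3 leaf stage with compound dissolved in acetone, plus Tween 80 and methyl oleate emulsifiable concentrate, at doses from 125 to 2000 g/ha.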

[2] = test system: Chenopodium album
How it was run: as §1

[3] = test system: Amaranthus retroflexus L.
How it was run: as §1

[4] = test system: Descurainia sophia
How it was run: as §1

| Compound | Weeding effect, activity level (growth control rate), Abutilon theophrasti [1] | Weeding effect, activity level (growth control rate), Chenopodium album [2] | Weeding effect, activity level (growth control rate), Amaranthus retroflexus L. [3] | Weeding effect, activity level (growth control rate), Descurainia sophia [4] |
| --- | --- | --- | --- | --- |
| Cn1nnnc1NC(=O)c1ccnc(-c2ccc(F)cc2)c1[N+](=O)[O-] [Compound 1-212] | 5 (Level 5: growth control rate is above 85%) | 5 (Level 5: growth control rate is above 85%) | 5 (Level 5: growth control rate is above 85%) | 5 (Level 5: growth control rate is above 85%) |
| Cn1nnnc1NC(=O)c1ccnc(-c2nccs2)c1Cl [Compound 1-230] | 5 (Level 5: growth control rate is above 85%) | 5 (Level 5: growth control rate is above 85%) | 5 (Level 5: growth control rate is above 85%) | 5 (Level 5: growth control rate is above 85%) |
| Cc1conc1NC(=O)c1ccnc(-c2ccc(F)cc2)c1Cl [Compound 1-1577] | 5 (Level 5: growth control rate is above 85%) | 5 (Level 5: growth control rate is above 85%) | 5 (Level 5: growth control rate is above 85%) | 5 (Level 5: growth control rate is above 85%) |
| Cn1nnnc1NC(=O)c1ccnc(OCC(F)(F)F)c1Cl [Compound 1-2062] | 5 (Level 5: growth control rate is above 85%) | 5 (Level 5: growth control rate is above 85%) | 5 (Level 5: growth control rate is above 85%) | 5 (Level 5: growth control rate is above 85%) |
| Cn1nnnc1NC(=O)c1ccnc(-c2ccc(-c3ccccc3)cc2)c1Cl [Compound 1-53] | 5 (Level 5: growth control rate is above 85%) | 5 (Level 5: growth control rate is above 85%) | 5 (Level 5: growth control rate is above 85%) | 5 (Level 5: growth control rate is above 85%) |
| Cc1ccc(-c2nccc(C(=O)Nc3nnnn3C)c2Cl)cc1F [Compound 1-68] | 5 (Level 5: growth control rate is above 85%) | 5 (Level 5: growth control rate is above 85%) | 5 (Level 5: growth control rate is above 85%) | 5 (Level 5: growth control rate is above 85%) |
| COc1c(C(=O)Nc2nnnn2C)ccnc1-c1ccc(C#N)cc1 [Compound 1-2029] | 5 (Level 5: growth control rate is above 85%) | 5 (Level 5: growth control rate is above 85%) | 5 (Level 5: growth control rate is above 85%) | 5 (Level 5: growth control rate is above 85%) |
| Cn1cncc1-c1nccc(C(=O)Nc2nnnn2C)c1Cl [Compound 1-234] | 5 (Level 5: growth control rate is above 85%) | 5 (Level 5: growth control rate is above 85%) | 5 (Level 5: growth control rate is above 85%) | 5 (Level 5: growth control rate is above 85%) |
| CN(C)c1c(C(=O)Nc2nnnn2C)ccnc1-c1ccc(Cl)cc1 [Compound 1-2044] | 5 (Level 5: growth control rate is above 85%) | 5 (Level 5: growth control rate is above 85%) | 5 (Level 5: growth control rate is above 85%) | 5 (Level 5: growth control rate is above 85%) |
| CCc1ccc(-c2ccc(-c3nccc(C(=O)Nc4nnnn4C)c3Cl)cc2)cc1 [Compound 1-54] | 5 (Level 5: growth control rate is above 85%) | 5 (Level 5: growth control rate is above 85%) | 5 (Level 5: growth control rate is above 85%) | 5 (Level 5: growth control rate is above 85%) |
| Cn1nnnc1NC(=O)c1ccnc(-c2ccc(C(F)(F)F)cc2)c1Cl [Compound 1-27] | 5 (Level 5: growth control rate is above 85%) | 5 (Level 5: growth control rate is above 85%) | 5 (Level 5: growth control rate is above 85%) | 5 (Level 5: growth control rate is above 85%) |
| Cn1nnnc1NC(=O)c1ccnc(-c2ccc(F)cc2)c1-c1ccc(F)cc1 [Compound 1-223] | 5 (Level 5: growth control rate is above 85%) | 5 (Level 5: growth control rate is above 85%) | 5 (Level 5: growth control rate is above 85%) | 5 (Level 5: growth control rate is above 85%) |
| Cn1nnnc1NC(=O)c1ccnc(-c2ccccc2[N+](=O)[O-])c1Cl [Compound 1-38] | 5 (Level 5: growth control rate is above 85%) | 5 (Level 5: growth control rate is above 85%) | 5 (Level 5: growth control rate is above 85%) | 5 (Level 5: growth control rate is above 85%) |
| Cn1nnnc1NC(=O)c1ccnc(-c2ccc(Cl)nc2Cl)c1Cl [Compound 1-139] | 5 (Level 5: growth control rate is above 85%) | 5 (Level 5: growth control rate is above 85%) | 5 (Level 5: growth control rate is above 85%) | 5 (Level 5: growth control rate is above 85%) |
| Cn1nnnc1NC(=O)c1ccnc(-c2ccc(C#N)cc2)c1F [Compound 1-2016] | 5 (Level 5: growth control rate is above 85%) | 5 (Level 5: growth control rate is above 85%) | 5 (Level 5: growth control rate is above 85%) | 5 (Level 5: growth control rate is above 85%) |
| Cn1nnnc1NC(=O)c1ccnc(-c2ccc(F)c3ccccc23)c1Cl [Compound 1-113] | 5 (Level 5: growth control rate is above 85%) | 5 (Level 5: growth control rate is above 85%) | 5 (Level 5: growth control rate is above 85%) | 5 (Level 5: growth control rate is above 85%) |
| COc1ccc(-c2nccc(C(=O)Nc3nnnn3C)c2Cl)cc1C=O [Compound 1-99] | 5 (Level 5: growth control rate is above 85%) | 5 (Level 5: growth control rate is above 85%) | 5 (Level 5: growth control rate is above 85%) | 5 (Level 5: growth control rate is above 85%) |
| CC[S+]([O-])c1c(C(=O)Nc2nnnn2C)ccnc1-c1ccc(F)cc1 (stereo not shown) [Compound 1-206] | 5 (Level 5: growth control rate is above 85%) | 5 (Level 5: growth control rate is above 85%) | 5 (Level 5: growth control rate is above 85%) | 5 (Level 5: growth control rate is above 85%) |
| Cn1nnnc1NC(=O)c1ccnc(-c2cccc3c2oc2ccccc23)c1Cl [Compound 1-116] | 5 (Level 5: growth control rate is above 85%) | 5 (Level 5: growth control rate is above 85%) | 5 (Level 5: growth control rate is above 85%) | 5 (Level 5: growth control rate is above 85%) |
| Cc1nccc(C(=O)Nc2nnnn2C)c1Cl [Compound 1-1] | 5 (Level 5: growth control rate is above 85%) | 5 (Level 5: growth control rate is above 85%) | 5 (Level 5: growth control rate is above 85%) | 5 (Level 5: growth control rate is above 85%) |
| Cn1nnnc1NC(=O)c1ccnc(-c2ccc(Cl)cc2F)c1Cl [Compound 1-95] | 5 (Level 5: growth control rate is above 85%) | 5 (Level 5: growth control rate is above 85%) | 5 (Level 5: growth control rate is above 85%) | 5 (Level 5: growth control rate is above 85%) |
| Cn1nnnc1NC(=O)c1ccnc(-c2ccc(F)cc2Cl)c1Cl [Compound 1-94] | 5 (Level 5: growth control rate is above 85%) | 5 (Level 5: growth control rate is above 85%) | 5 (Level 5: growth control rate is above 85%) | 5 (Level 5: growth control rate is above 85%) |
